US9102688B2, “Sulfonaminoquinoline hepcidin antagonists” (Vifor (International) AG, priority 2011, dated 2015)

Target: T1, human ferroportin (Homo sapiens, UniProt Q9NP59)
T1 construct: expressed in transfected cells
T1 sequence (Q9NP59 1-571): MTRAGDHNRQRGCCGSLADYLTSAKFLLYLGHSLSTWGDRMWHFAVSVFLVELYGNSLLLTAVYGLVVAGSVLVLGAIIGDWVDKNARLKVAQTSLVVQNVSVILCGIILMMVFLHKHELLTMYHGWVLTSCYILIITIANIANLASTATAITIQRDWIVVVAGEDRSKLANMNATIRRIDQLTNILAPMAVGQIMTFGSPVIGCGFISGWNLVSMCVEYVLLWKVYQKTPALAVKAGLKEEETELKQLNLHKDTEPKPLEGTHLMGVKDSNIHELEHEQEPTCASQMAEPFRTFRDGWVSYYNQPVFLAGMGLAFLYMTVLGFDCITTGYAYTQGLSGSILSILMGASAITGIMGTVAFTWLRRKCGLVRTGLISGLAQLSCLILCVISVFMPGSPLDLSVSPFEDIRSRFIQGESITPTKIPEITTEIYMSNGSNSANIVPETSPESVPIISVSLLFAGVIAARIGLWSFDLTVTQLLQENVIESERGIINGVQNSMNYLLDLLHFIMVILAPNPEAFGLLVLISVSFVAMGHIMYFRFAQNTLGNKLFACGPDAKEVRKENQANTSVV
Test: ferroportin internalization assay (inhibition of hepcidin-induced internalization of Fpn)
Format: cell-based
Details: MDCK-FPN-HaloTag cells, 100 nM hepcidin, overnight incubation; concentration range from 0.04 to 40 μM
In short: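 MDCK cells stably expressing human ferroportin–HaloTag were labelled with TMR ligand, then incubated overnight at 37 °C with compound plus 100 nM hepcidin (final). After fixation and nuclear staining, confocal imaging quantified membrane Fpn fluorescence to measure blocking of hepcidin-induced internalization.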

Row | Structure (SMILES) | IC50 [µM]
1 | CN1Cc2ccc3cccnc3c2NS1(=O)=O [Example 405, 2-Methyl-1,4-dihydro-2H-3-thia-2,4,5-triaza-phenanthrene 3,3-dioxide] | 6.5
2 | O=S(=O)(Nc1cc(F)c(F)c2cccnc12)c1ccccc1 [Example 97, N-(5,6-Difluoro-quinolin-8-yl)-benzenesulfonamide] | 8
3 | CN(C)CCN(C)c1cc2c(c3ncccc13)NS(=O)(=O)c1ccccc1-2 [Example 552, N-(6,6-Dioxo-5,6-dihydro-6λ*6*-thia-4,5-diaza-chrysen-12-yl)-N,N′,N′-trimethyl-ethane-1,2-diamine] | 5
4 | O=[N+]([O-])c1ccccc1S(=O)(=O)Nc1cccc2cccnc12 [Example 6, 2-Nitro-N-quinolin-8-yl-benzenesulfonamide] | 2.9
5 | O=S(=O)(Nc1cccc2cccnc12)Oc1ccccc1 [Example 70, Quinolin-8-yl-sulfamic acid phenyl ester] | 3.25
6 | CN1C(c2ccc(F)c(C(=O)N3CCOCC3)c2)c2ccc3cccnc3c2NS1(=O)=O (stereo not shown) [Example 428, [2-Fluoro-5-(2-methyl-3,3-dioxo-1,2,3,4-tetrahydro-3λ*6*-thia-2,4,5-triaza-phenanthren-1-yl)-phenyl]-morpholin-4-yl-methanone] | 2.62
7 | N#Cc1ccc(S(=O)(=O)Nc2cccc3cccnc23)cn1 [Example 116, 6-Cyano-pyridine-3-sulfonic acid quinolin-8-ylamide] | 4.26
8 | COc1cc(NS(=O)(=O)c2cccnc2)c2ncccc2c1 [Example 59, Pyridine-3-sulfonic acid (6-methoxy-quinolin-8-yl)-amide] | 2.8
9 | COC(=O)c1ccc2c(c1)-c1ccc3cccnc3c1NS2(=O)=O [Example 307, 6,6-Dioxo-5,6-dihydro-6λ*6*-thia-4,5-diaza-chrysene-9-carboxylic acid methyl ester] | 4.18
10 | CN1C(c2ccc(F)cc2)c2cc(Cl)c3cccnc3c2NS1(=O)=O (stereo not shown) [Example 401, 9-Chloro-1-(4-fluoro-phenyl)-2-methyl-1,4-dihydro-2H-3-thia-2,4,5-triaza-phenanthrene 3,3-dioxide] | 12.5
11 | O=S1(=O)Nc2c(ccc3cccnc23)-c2ccccc21 [Example 2, 5H-6-Thia-4,5-diaza-chrysene 6,6-dioxide] | 2.9
12 | NC(=O)c1ccnc2c(NS(=O)(=O)c3ccccc3)cccc12 [Example 539, 8-Benzenesulfonylamino-quinoline-4-carboxylic acid amide] | 10.4
13 | N#Cc1ccc(S(=O)(=O)Nc2cc(F)cc3cccnc23)cn1 [Example 239, 6-Cyano-pyridine-3-sulfonic acid (6-fluoro-quinolin-8-yl)-amide] | 3.75
14 | CN(C)CCNCc1cc(C2c3ccc4cccnc4c3NS(=O)(=O)N2C)ccc1F (stereo not shown) [Example 425, N′-[2-Fluoro-5-(2-methyl-3,3-dioxo-1,2,3,4-tetrahydro-3λ*6*-thia-2,4,5-triaza-phenanthren-1-yl)-benzyl]-N,N-dimethyl-ethane-1,2-diamine] | 7.41
15 | O=C(c1ccc2c(c1)-c1cc(Cl)c3cccnc3c1NS2(=O)=O)N1CCOCC1 [Example 527, (12-Chloro-6,6-dioxo-5,6-dihydro-6λ*6*-thia-4,5-diaza-chrysen-9-yl)-morpholin-4-yl-methanone] | 2.74
16 | O=S(=O)(Nc1ccccc1)Nc1cccc2cccnc12 [Example 46, N-phenyl(quinolin-8-ylamino)sulfonamide] | 2.3
17 | CN(C)CCNc1cc2c(c3ncccc13)NS(=O)(=O)c1ccccc1-2 [Example 546, N′-(6,6-Dioxo-5,6-dihydro-6λ*6*-thia-4,5-diaza-chrysen-12-yl)-N,N-dimethyl-ethane-1,2-diamine] | 9.98
18 | O=S1(=O)Nc2c(ccc3c(-n4cccn4)ccnc23)-c2ccccc21 [Example 494, 1-Pyrazol-1-yl-5H-6-thia-4,5-diaza-chrysene 6,6-dioxide] | 3.53
19 | O=S1(=O)Nc2c(ccc3c(Cl)ccnc23)-c2ccccc21 [Example 305, 1-Chloro-5H-6-thia-4,5-diaza-chrysene 6,6-dioxide] | 12.5
20 | Cc1ccc2c(c1)-c1ccc3cccnc3c1NS2(=O)=O [Example 327, 9-Methyl-5H-6-thia-4,5-diaza-chrysene 6,6-dioxide] | 3.2
21 | O=S1(=O)Nc2c(cc(Br)c3cccnc23)-c2ccccc21 [Example 545, 12-Bromo-5H-6-thia-4,5-diaza-chrysene 6,6-dioxide] | 12.6
22 | O=S(=O)(Nc1cccc2cccnc12)c1cncc(C(F)(F)F)c1 [Example 229, 5-Trifluoromethyl-pyridine-3-sulfonic acid quinolin-8-ylamide] | 3.98

These reach a lower IC50. Values come first.

Row | IC50 [µM] | Structure (SMILES)
23 | 2.11 | N#Cc1ccc(S(=O)(=O)Nc2cc(OC(F)(F)F)cc3cccnc23)cn1 [Example 238, 6-Cyano-pyridine-3-sulfonic acid (6-trifluoromethoxy-quinolin-8-yl)-amide]
24 | 2.01 | O=S1(=O)Nc2c(ccc3cccnc23)-c2cc(N3CCC(O)C3)ccc21 (stereo not shown) [Example 506, 1-(6,6-Dioxo-5,6-dihydro-6λ*6*-thia-4,5-diaza-chrysen-9-yl)-pyrrolidin-3-ol]
25 | 1.89 | O=S(=O)(Nc1cccc2cccnc12)c1ccccn1 [Example 85, Pyridine-2-sulfonic acid quinolin-8-ylamide]
26 | 1.5 | O=S(=O)(Nc1cc(F)c(Cl)c2cccnc12)c1ccccc1 [Example 82, N-(5-Chloro-6-fluoro-quinolin-8-yl)-benzenesulfonamide]
27 | 1.5 | Cc1cc(F)ccc1C1c2ccc3cccnc3c2NS(=O)(=O)N1C (stereo not shown) [Example 395, 1-(4-Fluoro-2-methyl-phenyl)-2-methyl-1,4-dihydro-2H-3-thia-2,4,5-triaza-phenanthrene 3,3-dioxide]
28 | 1.5 | COc1cccc(S(=O)(=O)Nc2cccc3cccnc23)c1 [Example 21, 3-Methoxy-N-quinolin-8-yl-benzenesulfonamide]
29 | 1.14 | O=S(=O)(Nc1cccc2cccnc12)c1c(F)cccc1F [Example 64, 2,6-Difluoro-N-quinolin-8-yl-benzenesulfonamide]
30 | 1.1 | O=S1(=O)Nc2c(cc(Cl)c3cccnc23)-c2cc(N3CCC(O)CC3)ccc21 [Example 504, 1-(12-Chloro-6,6-dioxo-5,6-dihydro-6λ*6*-thia-4,5-diaza-chrysen-9-yl)-piperidin-4-ol]
31 | 1 | COc1cc(NS(=O)(=O)c2ccc(C(F)(F)F)cc2N)c2ncccc2c1 [Example 65, 2-Amino-N-(6-methoxy-quinolin-8-yl)-4-trifluoromethyl-benzenesulfonamide]
32 | 1 | O=S(=O)(Nc1cccc2cccnc12)c1ccc(C(F)(F)F)cc1 [Example 17, N-Quinolin-8-yl-4-trifluoromethyl-benzenesulfonamide]
33 | 0.99 | O=C(OC1CCCC1)c1ccc2c(c1)-c1cc(Cl)c3cccnc3c1NS2(=O)=O [Example 533, 12-Chloro-6,6-dioxo-5,6-dihydro-6λ*6*-thia-4,5-diaza-chrysene-9-carboxylic acid cyclopentyl ester]
34 | 0.96 | CN1C(c2ccc(C(F)(F)F)nc2)c2ccc3cccnc3c2NS1(=O)=O (stereo not shown) [Example 386, 2-Methyl-1-(6-trifluoromethyl-pyridin-3-yl)-1,4-dihydro-2H-3-thia-2,4,5-triaza-phenanthrene 3,3-dioxide]
35 | 0.92 | O=[N+]([O-])c1cc(F)ccc1S(=O)(=O)Nc1cccc2cccnc12 [Example 30, 4-Fluoro-2-nitro-N-quinolin-8-yl-benzenesulfonamide]
36 | 0.91 | CN(C)c1ccc2c(c1)-c1ccc3cccnc3c1NS2(=O)=O [Example 502, (6,6-Dioxo-5,6-dihydro-6λ*6*-thia-4,5-diaza-chrysen-9-yl)-dimethyl-amine]
37 | 0.87 | CN1C(c2ccccc2)c2ccc3cccnc3c2NS1(=O)=O (stereo not shown) [Example 115, 2-Methyl-1-phenyl-1,4-dihydro-2H-3-thia-2,4,5-triaza-phenanthrene 3,3-dioxide]
38 | 0.69 | O=S(=O)(Nc1cc(F)cc2cccnc12)c1ccc(Cl)cc1F [Example 95, 4-Chloro-2-fluoro-N-(6-fluoro-quinolin-8-yl)-benzenesulfonamide]
39 | 0.61 | Cc1cnc2c(NS(=O)(=O)c3ccccc3)cccc2c1 [Example 45, N-(3-Methyl-quinolin-8-yl)-benzenesulfonamide]
40 | 0.6 | Cc1ccc(C2c3ccc4cccnc4c3NS(=O)(=O)N2C)cc1 (stereo not shown) [Example 383, 2-Methyl-1-p-tolyl-1,4-dihydro-2H-3-thia-2,4,5-triaza-phenanthrene 3,3-dioxide]
41 | 0.42 | O=S1(=O)Nc2c(cc(Cl)c3cccnc23)-c2cc(OC3CCCC3)ccc21 [Example 514, 12-Chloro-9-cyclopentyloxy-5H-6-thia-4,5-diaza-chrysene 6,6-dioxide]
42 | 0.419 | O=S(=O)(Nc1cccc2cccnc12)c1ccccc1C(F)(F)F [Example 43, N-Quinolin-8-yl-2-trifluoromethyl-benzenesulfonamide]
43 | 0.25 | CN1C(c2ccc(F)c(F)c2)c2ccc3cccnc3c2NS1(=O)=O (stereo not shown) [Example 392, 1-(3,4-Difluoro-phenyl)-2-methyl-1,4-dihydro-2H-3-thia-2,4,5-triaza-phenanthrene 3,3-dioxide]
